In experiment [1] the test system is S. aureus MSSA (ATCC 29213). Description: MIC susceptibility testing. In kind it is cell-based, Staphylococcus aureus. To be noted: Staphylococcus aureus, S. aureus ATCC 29213; read-out: (F) S. aureus (ATCC 29213) MIC. An excerpt: Media and culture conditions. Mueller Hinton broth (MHB), cation adjusted Mueller Hinton broth (CA-MHB), and Brain Heart Infusion broth (BHI) were purchased from Becton Dickinson (Franklin Lakes, N.J.). Tryptic soy agar (TSA) plates, TSA with 5% sheep blood plates, and CA-MHB with 3% laked horse blood were purchased from Remel (San Diego, Calif.). MHB was used to assay all Staphylococcus aureus strains. CA-MHB was used for Staphylococcus epidermidis, Enterococcus faecalis, Enterococcus faecium, Escherichia coli, and Pseudomonas aeruginosa. CA-MHB supplemented with 3% laked horse blood was used for Streptococcus pneumoniae and Streptococcus pyogenes. Staphylococcus, Enterococcus, Escherichia, and Pseudomonas strains were cultured at 37° C. with ambient air. Streptococcus strains were cultured in 37° C. with 5% CO2. Separate conditions for radiolabeled precursor uptake assays are described below.
Susceptibility testing: Minimum inhibitory concentration (MIC) determinations were performed in triplicate in 96-well round bottom microtiter plates (Corning, Corning N.Y.) as described by the Clinical and Laboratory Standards Institute (CLSI). Serial two-fold dilutions of compounds were added to plates in 50 μL volumes. An additional 50 μL of media containing bacterial cells (1×10^6 CFUs/mL) was then added to each well. Maximum DMSO concentrations were 0.5%. Plates were incubated at 37° C. for at least 18 h before reading the susceptibility result by optical absorbance (OD600) using a BioTek ELx800. The lowest concentration causing ≥90% growth inhibition compared to the untreated control was recorded as the MIC (and also corresponded to the visual MIC). MICs were measured at least twice and the higher value (if different) was recorded herein.

For another experiment, the system named is T. brucei. Description: T. brucei growth inhibition. In kind it is cell-based, Trypanosoma brucei. To be noted: read-out: (D) T. brucei EC50.
The test system of a further experiment is T. cruzi. The experiment is described as follows: T. cruzi growth inhibition. In kind it is cell-based, Trypanosoma cruzi. To be noted: read-out: (E) T. cruzi EC50.
The next experiment relates to C. parvum. The experiment is described as follows: C. parvum growth inhibition. It counts as cell-based, Cryptosporidium parvum. To be noted: read-out: (J) C. parvum EC50.
The next experiment addresses MetRS (C. parvum) (Cryptosporidium parvum, UniProt Q5CVN0). Description: MetRS (C. parvum) enzyme inhibition. To be noted: read-out: (C) MetRS (C. parvum) IC50. It counts as biochemical.

≈ marks a conversion by molar mass, not a printed value. Read-outs that look alike come from different tables or passages of the source. A value given as a limit tells only on which side of the number the result lay.

Chain of MetRS (C. parvum) (Q5CVN0 entry or part of it): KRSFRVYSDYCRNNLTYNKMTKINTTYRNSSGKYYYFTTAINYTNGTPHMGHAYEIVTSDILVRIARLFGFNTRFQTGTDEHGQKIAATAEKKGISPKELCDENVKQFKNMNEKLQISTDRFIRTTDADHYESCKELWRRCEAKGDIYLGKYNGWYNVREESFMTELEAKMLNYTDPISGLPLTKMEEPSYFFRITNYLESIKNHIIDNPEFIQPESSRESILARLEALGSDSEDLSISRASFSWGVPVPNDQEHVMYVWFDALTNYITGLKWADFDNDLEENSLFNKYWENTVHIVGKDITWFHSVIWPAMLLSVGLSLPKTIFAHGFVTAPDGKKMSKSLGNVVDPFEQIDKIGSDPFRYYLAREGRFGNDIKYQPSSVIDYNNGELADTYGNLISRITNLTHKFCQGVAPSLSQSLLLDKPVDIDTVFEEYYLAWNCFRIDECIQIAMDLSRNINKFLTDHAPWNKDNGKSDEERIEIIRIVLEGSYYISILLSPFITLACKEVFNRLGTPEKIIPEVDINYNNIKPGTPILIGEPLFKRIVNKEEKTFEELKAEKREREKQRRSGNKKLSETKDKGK

For `COc1ccc(Cc2cn(Cc3nc4nc(Cl)ccc4[nH]3)c(=O)n2CC(F)F)c(Cl)c1` [Compound 2258, 1-({5-chloro-1H-imidazo[4,5-b]pyridin-2-yl}methyl)-4-[(2-chloro-4-methoxyphenyl)methyl]-3-(2,2-difluoroethyl)-2,3-dihydro-1H-imidazol-2-one], the MIC in experiment [1] was 0.415 µg/mL (≈ 0.886 µM). In addition, the EC50 is less than 0.91 nM with T. brucei (Trypanosoma brucei); 1.35 nM with T. brucei; 5.39 nM in the experiment on T. cruzi (Trypanosoma cruzi); 5.96 nM in the experiment on T. cruzi; 188 nM in the experiment on C. parvum (Cryptosporidium parvum); 193 nM in the experiment on C. parvum.
For `OCCOc1cc(-c2cccc3nc(Cc4nc5nc(Cl)ccc5[nH]4)cn23)c(Cl)cc1Cl` [Compound 2270, 2-{2,4-dichloro-5-[2-({5-chloro-1H-imidazo[4,5-b]pyridin-2-yl}methyl)imidazo[1,2-a]pyridin-5-yl]phenoxy}ethan-1-ol], the values for the EC50 with T. brucei (Trypanosoma brucei), in the experiment on T. cruzi (Trypanosoma cruzi) and with C. parvum (Cryptosporidium parvum) were 43.2 nM, 706 nM and more than 2000 nM, respectively.
For `O=c1n(Cc2nc3c(F)c(F)ccc3[nH]2)cc(Cc2ccc(Cl)cc2Cl)n1CC(F)F` [Compound 2263, 4-[(2,4-dichlorophenyl)methyl]-1-[(6,7-difluoro-1H-1,3-benzodiazol-2-yl)methyl]-3-(2,2-difluoroethyl)-2,3-dihydro-1H-imidazol-2-one], the MIC in experiment [1] amounted to 3.29 µg/mL (≈ 6.95 µM). For the same compound, the EC50 was 64.4 nM with T. brucei (Trypanosoma brucei), 69.1 nM in the experiment with T. brucei, 366 nM in the experiment on T. cruzi (Trypanosoma cruzi) and more than 2000 nM in the experiment with C. parvum (Cryptosporidium parvum).
Turning to `COc1ccc(Cc2cn(Cc3nc4ncc(Cl)c(C)c4[nH]3)c(=O)n2CC(C)(C)O)c(Cl)c1` [Compound 2238, 4-[(2-chloro-4-methoxyphenyl)methyl]-1-({6-chloro-7-methyl-1H-imidazo[4,5-b]pyridin-2-yl}methyl)-3-(2-hydroxy-2-methylpropyl)-2,3-dihydro-1H-imidazol-2-one], the IC50 at MetRS (C. parvum) was 127 nM. In addition, the figures for the EC50 in the experiment on T. brucei (Trypanosoma brucei) and in the experiment with C. parvum (Cryptosporidium parvum) were 174 nM and more than 2000 nM, respectively.
Take `COC(=O)c1c(Cl)ccc2[nH]c(Cn3cc(Cc4ccc(OC)cc4Cl)n(CC(C)(C)O)c3=O)nc12` [Compound 2237, methyl 5-chlor0-2-({4-[(2-chloro-4-methoxyphenyl)methyl]-3-(2-hydroxy-2-methylpropyl)-2-oxo-2,3-dihydro-1H-imidazol-1-yl}methyl)-1H-1,3-benzodiazole-4-carboxylate]: the concentration for half-maximal inhibition (IC50) on MetRS (C. parvum) is more than 1000 nM. Also, the EC50 in the experiment with T. brucei (Trypanosoma brucei) was 546 nM; in the experiment with C. parvum (Cryptosporidium parvum) it was more than 2000 nM.
Regarding `Clc1ccc2[nH]c(Cc3cn4c(-c5cc(OCCOC6CCCCO6)c(Cl)cc5Cl)cccc4n3)nc2n1` (centres unmarked) [Compound 2271, 2-({5-chloro-1H-imidazo[4,5-b]pyridin-2-yl}methyl)-5-{2,4-dichloro-5-[2-(oxan-2-yloxy)ethoxy]phenyl}-imidazo[1,2-a]pyridine], the figures for the EC50 with T. brucei (Trypanosoma brucei), in the experiment with T. cruzi (Trypanosoma cruzi) and in the experiment with C. parvum (Cryptosporidium parvum) were 53.9 nM, 494 nM and more than 2000 nM, respectively.
For `CCn1c(Cc2ccc(Cl)cc2Cl)cn(Cc2nc3ccc(F)c(F)c3[nH]2)c1=O` [Compound 2262, 4-[(2,4-dichlorophenyl)methyl]-1-[(6,7-difluoro-1H-1,3-benzodiazol-2-yl)methyl]-3-ethyl-2,3-dihydro-1H-imidazol-2-one], the MIC in experiment [1] worked out at 0.557 µg/mL (≈ 1.27 µM). In addition, the EC50 came out at 18.9 nM in the experiment on T. brucei (Trypanosoma brucei), 25.6 nM with T. brucei, 126 nM in the experiment with T. cruzi (Trypanosoma cruzi) and 1500 nM with C. parvum (Cryptosporidium parvum).
Turning to `O=c1n(Cc2nc3c(F)c(F)ccc3[nH]2)cc(Cc2ccc(Cl)cc2Cl)n1CC1CCNCC1(F)F` (centres unmarked) [Compound 2264, 5-(2,4-dichlorobenzyl)-3-((4,5-difluoro-1H-benzo[d]imidazol-2-yl)methyl)-1-((3,3-difluoropiperidin-4-yl)methyl)-1H-imidazol-2(3H)-one], the MIC in experiment [1] was 1.22 µg/mL (≈ 2.25 µM). In addition, the EC50 is 39.9 nM with T. brucei (Trypanosoma brucei), 73.1 nM in the experiment with T. brucei, 133 nM with T. cruzi (Trypanosoma cruzi) and more than 2000 nM in the experiment with C. parvum (Cryptosporidium parvum).
`COC(=O)c1c(Cl)ccc2[nH]c(Cc3cn4c(-c5ccc(OC)cc5Cl)cccc4n3)nc12` [Compound 2236, methyl 5-chlor0-2-{[5-(2-chloro-4-methoxyphenyl)imidazo[1,2-a]pyridin-2-yl]methyl}-1H-1,3-benzodiazole-4-carboxylate]: on MetRS (C. parvum), the IC50 was 335 nM. Further, the EC50 was 1660 nM with T. brucei (Trypanosoma brucei) and more than 2000 nM in the experiment with C. parvum (Cryptosporidium parvum).
`COc1ccc(Cc2cn(Cc3nc4c(F)c(F)ccc4[nH]3)c(=O)n2CC(F)F)c(Cl)c1` [Compound 2261, 4-[(2-chloro-4-methoxyphenyl)methyl]-1-[(6,7-difluoro-1H-1,3-benzodiazol-2-yl)methyl]-3-(2,2-difluoroethyl)-2,3-dihydro-1H-imidazol-2-one]: the EC50 came to 214 nM with T. cruzi (Trypanosoma cruzi), 340 nM in the experiment on C. parvum (Cryptosporidium parvum) and 561 nM in the experiment with C. parvum.
For the compound `CCn1c(Cc2ccc(Cl)cc2Cl)cn(Cc2nc3c(ccc(Cl)[n+]3[O-])[nH]2)c1=O` [Compound 2235, 1-({5-chloro-4-oxo-1H-4λ^5-imidazo[4,5-b]pyridin-2-yl}methyl)-4-[(2,4-dichlorophenyl)methyl]-3-ethyl-2,3-dihydro-1H-imidazol-2-one], the IC50 at MetRS (C. parvum) is more than 1000 nM. Moreover, the 50% effective concentration (EC50) in the experiment on T. brucei (Trypanosoma brucei) was 1050 nM; in the experiment with C. parvum (Cryptosporidium parvum), more than 2000 nM.
`CC(=O)N1CCC(Cn2c(Cc3ccc(Cl)cc3Cl)cn(Cc3nc4nc(F)ccc4[nH]3)c2=O)C(F)(F)C1` (centres unmarked) [Compound 2265, 3-[(1-acetyl-3,3-difluoropiperidin-4-yl)methyl]-4-[(2,4-dichlorophenyl)methyl]-1-({5-fluoro-1H-imidazo[4,5-b]pyridin-2-yl}methyl)-2,3-dihydro-1H-imidazol-2-one]: the MIC in experiment [1] was determined as 1.62 µg/mL (≈ 2.86 µM). In addition, the EC50 was found to be 325 nM with T. cruzi (Trypanosoma cruzi) and 1840 nM with C. parvum (Cryptosporidium parvum).
For the compound `COc1ccc(-c2cccn3c(=S)n(Cc4nc5nc(Cl)ccc5[nH]4)cc23)c(Cl)c1` [Compound 2243, 2-({5-chloro-1H-imidazo[4,5-b]pyridin-2-yl}methyl)-8-(2-chloro-4-methoxyphenyl)-2H,3H-imidazo[1,5-a]pyridine-3-thione], the EC50 in the experiment with T. cruzi (Trypanosoma cruzi) stood at 96.9 nM; with T. cruzi, 172 nM; with C. parvum (Cryptosporidium parvum), 753 nM; with C. parvum, 1440 nM.

In general, MIC refers to the lowest concentration found to suppress growth. As usually defined, the EC50 is the concentration that produces a half-maximal response. For orientation: IC50 means the concentration at which inhibition is half-maximal.

The record behind these values is patent publication US11584744B2 (UNIVERSITY OF WASHINGTON, priority 2017, dated 2023).
